Test results published in patent US20250000874A1, “BACTERIAL METABOLITES AND THEIR USE IN REDUCING INFLAMMATION” (LOYOLA UNIVERSITY OF CHICAGO, priority 2023, published 2025).
“Also recorded” adds a separate entry of the source.

System: Raw 264.7 Cells
Assay: NC on TNFα release in Raw 264.7 cells in response to TLR agonists
Assay type: cell-based, mouse
Conditions: 50 μM NC 18 hours
Protocol: FIG. 27A and FIG. 27B. Metabolite NC on TNFα release in response to LPS in human and murine macrophages in vitro. Macrophages were plated at a uniform density of 0.2×10^6 cells/mL in 24 well plates. These cells (FIG. 27A) were allowed to adhere, or, in the case of THP-1 cells FIG. 27B), differentiate using PMA. They were then treated for 18 hours with 50 μM of metabolite NC before being stimulated with 0.1 ug of LPS-EK. Supernatant was collected between 4-6 hours after addition of LPS and debris was removed via centrifugation at 1250 rpm for 5 minutes. TNFα was quantified in the supernatant using sandwich ELISA with standards of known concentrations.
FIG. 28A and FIG. 28B. Metabolite NC on TNFα release in macrophages in response to various TLR agonists. Raw 264.7 cells (FIG. 28A) and THP-1 FIG. 28B) cells were plated at a uniform density of 0.2×10^6 cells per mL and stimulated with various TLR agonists: Pam3CSK4, Poly I:C, LPS, Fla, FSL-1, imiquimod (ImiQ), and ODN-2006. NC reduced TNFα release in response to TLR3 (p<0.0001 via student's t-test for both Raw 264.7 cells and THP-1 cells) and TLR4 agonists in both cell lines.
To investigate the effects of compound NC, macrophages were stimulated with LPS, an endotoxin associated with gram-negative bacteria. Human and murine macrophage-like cells (THP-1 cells and Raw 264.7 cells, respectively) were plated in 24 well plates at a uniform density of 0.2×10^6 cells/mL. Following 18 hours of pretreatment with 50 μM metabolite NC, they were stimulated with 10 μg/mL of LPS. After 4-6 hours, supernatant was collected and TNFα was quantified using sandwich ELISA. NC reduces TNFα release from both THP-1 and Raw 264.7 macrophage-like cells in response to TLR4 agonist LPS in vitro.
Metabolite NC reduces inflammation in response to TLR4 agonist LPS. To further investigate the specificity of NC's action in TLR signaling, Raw 264.7 (FIG. 28A) and THP-1 (FIG. 28B) cells were once again plated at a uniform density of 0.2×10^6 cells/mL, treated with 50 μM metabolite NC for 18 hours, and stimulated with agonists for TLR1/2, TLR3, TLR4, TLR5, TLR6/2, TLR7 and TLR9. After 4-6 hours, supernatant was collected and TNFα was quantified via sandwich ELISA.

CCCCCCCCCCCCCCCC(=O)N[C@@H](C(=O)O)[C@H](C)O [NC, N-Palmitoyl-D-Threonine]
TNFα release in response to TLR3 agonist Poly I:C (4-6 hours, ELISA): reduced
TNFα release in response to TLR4 agonist LPS (LPS, 4-6 hours, ELISA): reduced; also recorded: significantly less
TNFα release in the absence of LPS stimulation (unstimulated): did not increase; also recorded: does not increase
TNFα release in response to other TLR agonists (TLR1/2, TLR5, TLR6/2, TLR7, TLR9 agonists): did not significantly reduce
